US5106834A, “Linear free-sulfhydryl-containing oligopeptide derivatives as antihypertensive agents” (G. D. Searle & Co., priority 1988, dated 1992)
Positions of bridges follow the written chain, without caps; N, C: chain ends. Non-standard residues stand in square brackets, D forms with d. Residues, ends and D or L forms follow the SMILES beside them. No end group written: not given here. Cha = N[C@@H](CC1CCCCC1)C(=O)O; Pen = CC(C)(S)[C@H](N)C(=O)O

Test system: rabbit aortic rings

Compound	Relative Potencies to ANP-(103-126), Rabbit Aorta (relaxation of norepinephrine (50 nM) precontracted rings, EC50 compared with ANP-(103-126))	EC50 (read-out: EC50 in the rabbit aorta, relaxation of norepinephrine precontracted rings, n = 8)
[Pen][Cha]GRIDRIG-NH2 [Peptide No. 6]	0.010	
CC[C@H](C)[C@@H]1NC(=O)[C@H](CCCNC(=N)N)NC(=O)[C@H](CC(=O)O)NC(=O)[C@H]([C@@H](C)CC)NC(=O)[C@H](CCCNC(=N)N)NC(=O)CNC(=O)CNC(=O)[C@H](Cc2ccccc2)NC(=O)[C@@H](NC(=O)[C@H](CO)NC(=O)[C@@H](N)CO)CSSC[C@@H](C(=O)N[C@@H](CC(N)=O)C(=O)N[C@@H](CO)C(=O)N[C@@H](Cc2ccccc2)C(=O)N[C@@H](CCCNC(=N)N)C(=O)N[C@@H](Cc2ccc(O)cc2)C(=O)O)NC(=O)CNC(=O)[C@H](CC(C)C)NC(=O)CNC(=O)[C@H](CO)NC(=O)[C@H](CCC(N)=O)NC(=O)[C@H](C)NC(=O)CNC1=O [ANP-(103-126), ATRIOPEPTIN III] (H-SSCFGGRIDRIGAQSGLGCNSFRY-OH; disulfide 3-19)		2.3 ± 1.6 nM
